# Counter-ions that a name gives are not always drawn.
# Experiment: Self-assembly of CAD with DOPE (50:50) into vesicles, ethanol dilution or lipid film hydration
# Type: physicochemical
# Details: CAD:DOPE 50:50
# Method: Preparation of CAD-DOPE nanoparticles. […] The lipids DOTAP (1,2-dioleoyl-3-trimethylammonium-propane) and DOPE (1,2-dioleoyl-sn-glycero-3-phosphoethanolamine) were purchased from Avanti Polar Lipids (Alabaster, USA).
# For the ethanol dilution (ED) method, CADs (10 mg/ml) and DOPE (25 mg/ml) were separately dissolved in absolute ethanol. […] For the lipid film hydration method CAD (10 mg/ml) and DOPE (25 mg/ml) were dissolved in chloroform (50:50 mol ratio) and transferred to a brown glass vial, followed by chloroform evaporation under nitrogen flow. […] The classically used cationic DOTAP-DOPE liposomes (50:50 mol ratio) were likewise prepared via lipid film hydration, as previously reported in literature and diluted in HEPES buffer (pH 7.4, 20 mM) to obtain a final lipid concentration of 3.9 mM. Hydrodynamic diameter, polydispersity index (PDI) and zeta-potential of all formulations were determined via dynamic light scattering (DLS) (Zetasizer Nano, Malvern Instruments, Worcestershire, United Kingdom).
row,SMILES,vesicle formation with DOPE
1,CNCCCN1c2ccccc2CCc2ccccc21 [Desipramine hydrochloride],successful vesicle formation
2,CN1CCC(=C2c3ccccc3CC(=O)c3sccc32)CC1 [Ketotifen],did not self-assemble with DOPE
3,CN(C)CCC=C1c2ccccc2CCc2ccccc21 [Amitriptyline hydrochloride],successful vesicle formation
4,Clc1ccc2c(c1)CCc1cccnc1C2=C1CCNCC1 [Desloratadine],successful vesicle formation
5,NC1=NCC2c3ccccc3Cc3ccccc3N12 (stereo not drawn) [Epinastine],did not self-assemble with DOPE
6,CN(C)CCCN1c2ccccc2CCc2ccccc21 [Imipramine hydrochloride],successful vesicle formation
